Laboratory results published in patent US20240343906A1, “POLOXAMER-STABILIZED REAGENTS” (Promega Corporation, priority 2023, published 2024).

What was measured:
[1] = Reconstitution of lyophilized P-407 formulated cakes in 100 μL DPBS (visual appearance); assay type: physicochemical; settings: 100 nmols ligand, 100 μL DPBS (JF-552: after 4 h)
Procedure: The 1 μmol JF Dye HaloTag Ligand (JF-669 or JF-552) was dissolved in ca. 3.5 mL EtOH, followed by transferring the resulting solution to the melted P-407. The resulting mixture was rotated at ca. 65° C. to afford a homogeneous solution. […]

[2] = Solubility analysis: clarity by optical density at 850 nm (OD850) after reconstitution; assay type: physicochemical; settings: lyophilized, reconstituted in DPBS pH 7.0, 1 mM
Procedure: FIG. 4. Solubility of dye-chloroalkyl ligand conjugates following lyophilization in the presence of various excipients and reconstitution in DPBS pH 7.0.
Vials of lyophilized Chloroalkyl-JANELIA FLUOR 552 (CA-JF 552) and Chloroalkyl-JANELIA FLUOR 669 (CA-JF 669) formulated prior to lyophilization with various excipients were separately dissolved in 100 μL aqueous buffer to a final 1 mM concentration. 70 μl of the CA-JF 552 and CA-JF 669 solutions were then transferred to wells of a transparent 96-well plate for clarity analysis using Optical Density absorbance measurements at 850 nm [Bandwidth 3.5 nm] (OD850) on Tecan Spark plate reader (FIGS. 4 and 5). Target absorbance limit for clarity measurements was determined using a known turbidity sample of material similarly formulated with poloxamer to assess solubility of the ligand.
A clarity target of <0.1 was utilized.

| appearance after reconstitution ([1]; 3-mg-P407 formulation) | appearance after reconstitution ([1]; 9-mg-P407 formulation) | clarity (OD850) versus clarity target <0.1 ([2]; excipient cyclodextrin) | clarity (OD850) versus clarity target <0.1 ([2]; excipient pullulan) | Compound |
| --- | --- | --- | --- | --- |
| hazy suspension | clear solution | unable to hit clarity target | unable to hit clarity target | C[Si]1(C)C2=CC(=[N+]3CCC3)C=CC2=C(c2c(F)c(C(=O)NCCOCCOCCCCCCCl)c(F)c(F)c2C(=O)[O-])c2ccc(N3CCC3)cc21 [JF-669, Chloroalkyl-JANELIA FLUOR 669] |
| hazy suspension | clear solution | unable to hit clarity target | unable to hit clarity target | Chloroalkyl-JANELIA FLUOR 552 [JF-552] |
